# Results taken from article PMC11129975, “A first-in-human phase I study of TAS-117, an allosteric AKT inhibitor, in patients with advanced solid tumors” (Cancer Chemotherapy and Pharmacology, 2024).
# Test: Phase I safety: adverse events, adverse drug reactions, DLTs in patients with advanced solid tumors
# Format: in vivo, human
# Excerpt: This was a phase I, open-label, non-randomized, dose-escalating first-in-human study to evaluate the safety, pharmacokinetics, antitumor activity, pharmacodynamics, and pharmacogenomics of TAS-117 in patients with advanced solid tumors. The study had three phases: a dose escalation phase (DEP), a regimen modification phase (RMP), and a safety assessment phase (SAP). The treatment cycle on each regimen lasted 21 days. The DEP used an accelerated titration and 3 + 3 design. TAS-117 was administered orally once daily (QD) on an empty stomach (1 h before or 2 h after a meal). Dosing was determined based on a 4-week repeated oral-dose toxicology study in monkeys (data on file, Taiho Pharmaceutical Co., Ltd.); the highest non-severely toxic dose was 1.2 mg/kg/day, which was converted to 3.84 mg/body/day, or 2.4 mg/m^2. Therefore, the starting dose was determined to be ≤ 2.4 mg/m^2. At dose level 1, TAS-117 was administered at 2 mg QD (Day − 2), and the dose was increased to 4 mg QD after 2 days (Day 1). The RMP was conducted according to a 3 + 3 design. During this phase, the dose regimen was changed from QD administration to intermittent dosing of daily TAS-117 with 4 days on/3 days off. TAS-117 was administered on an empty stomach. Dose-limiting toxicities (DLTs) were evaluated in Cycle 1 of the DEP and RMP. […] The RD and regimen for the SAP were determined based on the safety, pharmacokinetics, pharmacodynamics, and antitumor activity profile determined in the DEP and RMP. During the SAP, the safety and preliminary efficacy profiles of TAS-117 were assessed at the RD and recommended regimen. Three cohorts were included in this assessment. Cohort 1 included patients with endometrial cancer with a PIK3CA mutation; cohort 2 included patients with endometrial cancer with an AKT1 mutation, AKT1 amplification, or AKT2 amplification; and cohort 3 included patients with ovarian clear cell carcinoma.
# The primary endpoints were the proportion of patients who experienced DLTs in Cycle 1 of the DEP and RMP and the incidence of adverse events (AEs) and adverse drug reactions (ADRs) in the SAP. AEs and ADRs were coded using the Medical Dictionary for Regulatory Activities (MedDRA; version 24.1) and graded according to the National Cancer Institute Common Terminology Criteria for Adverse Events (CTCAE; version 4.03). Secondary endpoints were pharmacokinetic findings, changes in the ratio of phosphorylated PRAS40 (pPRAS40)/total PRAS40 from baseline, efficacy, and pharmacogenomics findings.
smiles,measurement,setting,value
C[C@]1(O)C[C@@](N)(c2ccc(-c3nc4n(c3-c3ccccc3)COc3ccncc3-4)cc2)C1 [TAS-117],Adverse drug reactions: Blood AP increased,"Total N = 65, All grade",7 (10.8) n (%)
same,Adverse drug reactions: Decreased appetite,"Total N = 65, All grade",10 (15.4) n (%)
same,Adverse drug reactions: Diarrhea,"Total N = 65, All grade",8 (12.3) n (%)
same,Adverse drug reactions: Dry skin,"Total N = 65, All grade",8 (12.3) n (%)
same,Adverse drug reactions: GGT increased,"Total N = 65, All grade",8 (12.3) n (%)
same,Adverse drug reactions: GI disorders,"Total N = 65, All grade",41 (63.1) n (%)
same,Adverse drug reactions: General disorders and administration site conditions,"Total N = 65, All grade",27 (41.5) n (%)
same,Adverse drug reactions: Hyperglycemia,"Total N = 65, All grade",30 (46.2) n (%)
same,Adverse drug reactions: Investigations,"Total N = 65, All grade",39 (60.0) n (%)
same,Adverse drug reactions: Metabolism and nutrition disorders,"Total N = 65, All grade",36 (55.4) n (%)
same,Adverse drug reactions: Nausea,"Total N = 65, All grade",16 (24.6) n (%)
same,Adverse drug reactions: Neutrophil count decreased,"Total N = 65, All grade",21 (32.3) n (%)
same,Adverse drug reactions: Pruritus,"Total N = 65, All grade",13 (20.0) n (%)
same,Adverse drug reactions: Pyrexia,"Total N = 65, All grade",17 (26.2) n (%)
same,Adverse drug reactions: Rash maculo-papular,"Total N = 65, All grade",58 (89.2) n (%)
same,Adverse drug reactions: Skin and SC tissue disorders,"Total N = 65, All grade",61 (93.8) n (%)
same,Adverse drug reactions: Stomatitis,"Total N = 65, All grade",37 (56.9) n (%)
same,Adverse drug reactions: Vomiting,"Total N = 65, All grade",7 (10.8) n (%)
same,Adverse drug reactions: WBC count decreased,"Total N = 65, All grade",25 (38.5) n (%)
same,Adverse events: ALT increased,"Total N = 65, All grade",12 (18.5) n (%)
same,Adverse events: AST increased,"Total N = 65, All grade",13 (20.0) n (%)
same,Adverse events: Any events,"Total N = 65, All grade",64 (98.5) n (%)
same,Adverse events: Blood AP increased,"Total N = 65, All grade",8 (12.3) n (%)
same,Adverse events: Decreased appetite,"Total N = 65, All grade",19 (29.2) n (%)
same,Adverse events: Diarrhea,"Total N = 65, All grade",15 (23.1) n (%)
same,Adverse events: Dry skin,"Total N = 65, All grade",11 (16.9) n (%)
same,Adverse events: GGT increased,"Total N = 65, All grade",11 (16.9) n (%)
same,Adverse events: GI disorders,"Total N = 65, All grade",51 (78.5) n (%)
same,Adverse events: General disorders and administration site conditions,"Total N = 65, All grade",39 (60.0) n (%)
same,Adverse events: Hyperglycemia,"Total N = 65, All grade",30 (46.2) n (%)
same,Adverse events: Investigations,"Total N = 65, All grade",42 (64.6) n (%)
same,Adverse events: Metabolism and nutrition disorders,"Total N = 65, All grade",44 (67.7) n (%)
same,Adverse events: Nausea,"Total N = 65, All grade",21 (32.3) n (%)
same,Adverse events: Neutrophil count decreased,"Total N = 65, All grade",21 (32.3) n (%)
same,Adverse events: Pruritus,"Total N = 65, All grade",13 (20.0) n (%)
same,Adverse events: Pyrexia,"Total N = 65, All grade",24 (36.9) n (%)
same,Adverse events: Rash maculo-papular,"Total N = 65, All grade",58 (89.2) n (%)
same,Adverse events: Skin and SC tissue disorders,"Total N = 65, All grade",61 (93.8) n (%)
same,Adverse events: Stomatitis,"Total N = 65, All grade",38 (58.5) n (%)
same,Adverse events: Vomiting,"Total N = 65, All grade",13 (20.0) n (%)
same,Adverse events: WBC count decreased,"Total N = 65, All grade",25 (38.5) n (%)
same,Adverse drug reactions: ALT increased,"Total N = 65, ≥ Grade 3",2 (3.1) n (%)
same,Adverse drug reactions: AST increased,"Total N = 65, ≥ Grade 3",0 (0.0) n (%)
same,Adverse drug reactions: Any events,"Total N = 65, ≥ Grade 3",39 (60.0) n (%)
same,Adverse drug reactions: Blood AP increased,"Total N = 65, ≥ Grade 3",0 (0.0) n (%)
same,Adverse drug reactions: Decreased appetite,"Total N = 65, ≥ Grade 3",0 (0.0) n (%)
same,Adverse drug reactions: Diarrhea,"Total N = 65, ≥ Grade 3",0 (0.0) n (%)
same,Adverse drug reactions: Dry skin,"Total N = 65, ≥ Grade 3",0 (0.0) n (%)
same,Adverse drug reactions: GGT increased,"Total N = 65, ≥ Grade 3",5 (7.7) n (%)
same,Adverse drug reactions: GI disorders,"Total N = 65, ≥ Grade 3",1 (1.5) n (%)
same,Adverse drug reactions: General disorders and administration site conditions,"Total N = 65, ≥ Grade 3",0 (0.0) n (%)
same,Adverse drug reactions: Hyperglycemia,"Total N = 65, ≥ Grade 3",11 (16.9) n (%)
same,Adverse drug reactions: Investigations,"Total N = 65, ≥ Grade 3",20 (30.8) n (%)
same,Adverse drug reactions: Metabolism and nutrition disorders,"Total N = 65, ≥ Grade 3",11 (16.9) n (%)
same,Adverse drug reactions: Nausea,"Total N = 65, ≥ Grade 3",0 (0.0) n (%)
same,Adverse drug reactions: Neutrophil count decreased,"Total N = 65, ≥ Grade 3",9 (13.8) n (%)
same,Adverse drug reactions: Pruritus,"Total N = 65, ≥ Grade 3",0 (0.0) n (%)
same,Adverse drug reactions: Pyrexia,"Total N = 65, ≥ Grade 3",0 (0.0) n (%)
same,Adverse drug reactions: Rash maculo-papular,"Total N = 65, ≥ Grade 3",23 (35.4) n (%)
same,Adverse drug reactions: Skin and SC tissue disorders,"Total N = 65, ≥ Grade 3",24 (36.9) n (%)
same,Adverse drug reactions: Stomatitis,"Total N = 65, ≥ Grade 3",1 (1.5) n (%)
same,Adverse drug reactions: Vomiting,"Total N = 65, ≥ Grade 3",0 (0.0) n (%)
same,Adverse drug reactions: WBC count decreased,"Total N = 65, ≥ Grade 3",8 (12.3) n (%)
same,Adverse events: ALT increased,"Total N = 65, ≥ Grade 3",2 (3.1) n (%)
same,Adverse events: AST increased,"Total N = 65, ≥ Grade 3",1 (1.5) n (%)
same,Adverse events: Any events,"Total N = 65, ≥ Grade 3",44 (67.7) n (%)
same,Adverse events: Blood AP increased,"Total N = 65, ≥ Grade 3",1 (1.5) n (%)
same,Adverse events: Decreased appetite,"Total N = 65, ≥ Grade 3",1 (1.5) n (%)
same,Adverse events: Diarrhea,"Total N = 65, ≥ Grade 3",1 (1.5) n (%)
same,Adverse events: Dry skin,"Total N = 65, ≥ Grade 3",0 (0.0) n (%)
same,Adverse events: GGT increased,"Total N = 65, ≥ Grade 3",8 (12.3) n (%)
same,Adverse events: GI disorders,"Total N = 65, ≥ Grade 3",4 (6.2) n (%)
same,Adverse events: General disorders and administration site conditions,"Total N = 65, ≥ Grade 3",0 (0.0) n (%)
same,Adverse events: Hyperglycemia,"Total N = 65, ≥ Grade 3",11 (16.9) n (%)
same,Adverse events: Investigations,"Total N = 65, ≥ Grade 3",24 (36.9) n (%)
same,Adverse events: Metabolism and nutrition disorders,"Total N = 65, ≥ Grade 3",13 (20.0) n (%)
same,Adverse events: Nausea,"Total N = 65, ≥ Grade 3",0 (0.0) n (%)
same,Adverse events: Neutrophil count decreased,"Total N = 65, ≥ Grade 3",9 (13.8) n (%)
same,Adverse events: Pruritus,"Total N = 65, ≥ Grade 3",0 (0.0) n (%)
same,Adverse events: Pyrexia,"Total N = 65, ≥ Grade 3",0 (0.0) n (%)
same,Adverse events: Rash maculo-papular,"Total N = 65, ≥ Grade 3",23 (35.4) n (%)
same,Adverse events: Skin and SC tissue disorders,"Total N = 65, ≥ Grade 3",24 (36.9) n (%)
same,Adverse events: Stomatitis,"Total N = 65, ≥ Grade 3",1 (1.5) n (%)
same,Adverse events: Vomiting,"Total N = 65, ≥ Grade 3",0 (0.0) n (%)
same,Adverse events: WBC count decreased,"Total N = 65, ≥ Grade 3",8 (12.3) n (%)
same,Patients who developed AEs related to skin disorders,all treated patients,93.8%
same,Patients with maculopapular rash,all treated patients,89.2%
same,Patients who discontinued because of AEs,dose level 4 (24 mg intermittent administration),four patients
same,Recommended dose (RD),intermittent dosing (4 days on/3 days off),24 mg
same,Tolerability,once daily up to 16 mg/day and intermittent dosing of 24 mg/day,well tolerated
same,Maculopapular rash grade ≥ 3,printed as % of patients with this AE,35.4%
